This is an account of results in ChEMBL document CHEMBL4265889, “Design and synthesis of tetrahydropyridopyrimidine based Toll-Like Receptor (TLR) 7/8 dual agonists” (Bioorg Med Chem Lett, 2018).

Each structure is given as a SMILES string.

The target of data set [1] is T1, Toll-like receptor 8 (Homo sapiens) (UniProt Q9NR97).
T1 sequence (whole entry): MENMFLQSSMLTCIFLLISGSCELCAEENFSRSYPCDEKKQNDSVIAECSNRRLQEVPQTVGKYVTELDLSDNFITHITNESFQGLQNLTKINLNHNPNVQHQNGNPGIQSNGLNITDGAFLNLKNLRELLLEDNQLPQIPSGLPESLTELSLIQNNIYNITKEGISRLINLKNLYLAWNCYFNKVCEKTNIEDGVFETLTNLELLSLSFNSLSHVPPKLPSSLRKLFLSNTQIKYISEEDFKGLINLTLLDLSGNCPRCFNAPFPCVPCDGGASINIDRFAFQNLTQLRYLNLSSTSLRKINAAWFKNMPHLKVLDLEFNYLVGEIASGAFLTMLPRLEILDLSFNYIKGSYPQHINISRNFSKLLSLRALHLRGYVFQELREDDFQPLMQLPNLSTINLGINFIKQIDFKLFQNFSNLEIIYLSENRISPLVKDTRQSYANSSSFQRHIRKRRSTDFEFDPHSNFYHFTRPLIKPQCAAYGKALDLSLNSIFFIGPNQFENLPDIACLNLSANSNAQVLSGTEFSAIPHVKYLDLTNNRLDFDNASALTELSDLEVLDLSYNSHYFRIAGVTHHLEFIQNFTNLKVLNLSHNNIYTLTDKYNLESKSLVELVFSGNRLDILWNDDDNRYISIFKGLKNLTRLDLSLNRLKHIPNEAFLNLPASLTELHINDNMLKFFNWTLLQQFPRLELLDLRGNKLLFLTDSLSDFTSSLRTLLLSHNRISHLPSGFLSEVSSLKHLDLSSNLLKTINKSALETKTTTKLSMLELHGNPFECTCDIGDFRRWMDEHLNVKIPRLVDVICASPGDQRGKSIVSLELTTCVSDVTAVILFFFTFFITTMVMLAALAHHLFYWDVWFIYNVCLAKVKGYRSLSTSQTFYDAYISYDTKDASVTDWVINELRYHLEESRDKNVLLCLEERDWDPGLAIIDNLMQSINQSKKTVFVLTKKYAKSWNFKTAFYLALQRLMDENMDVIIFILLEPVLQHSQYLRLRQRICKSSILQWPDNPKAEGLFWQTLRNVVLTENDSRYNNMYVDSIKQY
In words: Agonist activity at human TLR8 expressed in HEK293 cells after 6 hrs by NFkappaB-luciferase reporter gene assay. The data set is classed as cell-based.

A short description of data set [2]: Cytotoxicity against HEK293 cells transfected with the CMV-TLR7 construct assessed as reduction in cell viability after 6 hrs by ATPlite assay. The data set is classed as cell-based. Conditions: human.
Data set [3] addresses Voltage-gated inwardly rectifying potassium channel KCNH2 (Homo sapiens, UniProt Q12809). The experiment in a line: Displacement of 3H-dofetilide from human ERG.
Data set [4] in a line: Drug metabolism in mouse liver microsomes at 1 uM after 15 mins. Conditions: read-out: Drug metabolism. The data set is classed as ADME, microsome.
A short description of data set [5]: Drug metabolism in human liver microsomes at 1 uM after 15 mins. The class given is ADME, microsome. Conditions: read-out: Drug metabolism.
Data set [6] is described as follows: Tmax in C57BL/6 mouse plasma at 5 mg/kg, po. The data set is classed as ADME, organism-based.
Data set [7] is described as follows: Cmax in C57BL/6 mouse plasma at 5 mg/kg, po. The data set is classed as ADME, organism-based. Set-up: dose 5 mg/kg, route oral.
Data set [8] in a line: Cmax in C57BL/6 mouse liver at 5 mg/kg, po. Set-up: dose 5 mg/kg, route oral. The data set is classed as ADME, organism-based.
The nature of data set [9]: AUC (0 to last) in C57BL/6 mouse liver at 5 mg/kg, po. The class given is ADME, organism-based. Conditions: in vivo.
A short description of data set [10]: Protein binding in mouse plasma. Conditions: read-out: PPB (converted). The class given is ADME, cell-free.
A further data set has as its target Cytochrome P450 2C9 (Homo sapiens, UniProt P11712). The experiment in a line: Inhibition of CYP2C9 (unknown origin). The data set is classed as ADME.
A further data set concerns the target Cytochrome P450 2D6 (Homo sapiens, UniProt P10635). The experiment in a line: Inhibition of CYP2D6 (unknown origin). The data set is classed as ADME.
The target of another data set is T2, Cytochrome P450 1A2 (Homo sapiens, UniProt P05177).
T2 sequence (P05177 whole entry): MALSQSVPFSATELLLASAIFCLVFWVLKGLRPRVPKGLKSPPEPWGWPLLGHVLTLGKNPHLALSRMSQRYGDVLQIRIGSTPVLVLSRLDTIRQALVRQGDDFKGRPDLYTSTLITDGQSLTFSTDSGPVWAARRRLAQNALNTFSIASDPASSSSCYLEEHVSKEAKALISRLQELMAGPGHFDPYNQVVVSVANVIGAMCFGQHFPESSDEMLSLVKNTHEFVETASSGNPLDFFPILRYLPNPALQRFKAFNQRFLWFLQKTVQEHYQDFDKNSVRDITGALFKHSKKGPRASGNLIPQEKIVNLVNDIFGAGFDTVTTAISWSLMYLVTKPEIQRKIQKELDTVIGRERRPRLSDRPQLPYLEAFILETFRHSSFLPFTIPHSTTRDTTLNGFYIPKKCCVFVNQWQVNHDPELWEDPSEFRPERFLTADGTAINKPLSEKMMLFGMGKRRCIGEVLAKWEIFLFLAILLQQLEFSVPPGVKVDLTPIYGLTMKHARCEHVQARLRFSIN
In words: Inhibition of CYP1A2 (unknown origin). The class given is ADME.

The target in another data set is Cytochrome P450 2C19 (Homo sapiens, UniProt P33261). In words: Inhibition of CYP2C19 (unknown origin). The class given is ADME.
Chain of Cytochrome P450 2C19 (P33261 whole entry): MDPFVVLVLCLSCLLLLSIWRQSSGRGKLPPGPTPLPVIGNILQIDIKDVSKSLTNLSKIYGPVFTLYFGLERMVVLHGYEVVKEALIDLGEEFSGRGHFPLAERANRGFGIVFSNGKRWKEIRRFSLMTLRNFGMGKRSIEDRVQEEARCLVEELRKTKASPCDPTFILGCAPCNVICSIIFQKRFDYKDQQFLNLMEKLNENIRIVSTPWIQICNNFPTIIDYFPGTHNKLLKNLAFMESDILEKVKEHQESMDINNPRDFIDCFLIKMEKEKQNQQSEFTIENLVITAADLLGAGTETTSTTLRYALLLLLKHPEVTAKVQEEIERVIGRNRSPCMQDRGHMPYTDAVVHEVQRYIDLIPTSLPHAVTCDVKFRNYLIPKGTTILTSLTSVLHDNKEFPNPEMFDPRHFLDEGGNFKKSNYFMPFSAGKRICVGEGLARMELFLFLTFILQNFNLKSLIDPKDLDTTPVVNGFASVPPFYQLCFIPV
The subject of another data set is Mus musculus. In words: Induction of innate immune response in C57BL/6 mouse assessed as IP-10 Tmax at 5 mg/kg, po. The class given is functional, organism-based.
The target in data set [11] is Dopamine receptor (Homo sapiens) (UniProt P14416+P35462+P21918+P21917+P21728). The experiment in a line: Binding affinity to dopamine receptor (unknown origin). The data set is classed as protein assay.
Another data set is filed under the species Homo sapiens. The experiment in a line: Binding affinity to serotonin receptor (unknown origin).

Chain of Cytochrome P450 2C9 (P11712 whole entry): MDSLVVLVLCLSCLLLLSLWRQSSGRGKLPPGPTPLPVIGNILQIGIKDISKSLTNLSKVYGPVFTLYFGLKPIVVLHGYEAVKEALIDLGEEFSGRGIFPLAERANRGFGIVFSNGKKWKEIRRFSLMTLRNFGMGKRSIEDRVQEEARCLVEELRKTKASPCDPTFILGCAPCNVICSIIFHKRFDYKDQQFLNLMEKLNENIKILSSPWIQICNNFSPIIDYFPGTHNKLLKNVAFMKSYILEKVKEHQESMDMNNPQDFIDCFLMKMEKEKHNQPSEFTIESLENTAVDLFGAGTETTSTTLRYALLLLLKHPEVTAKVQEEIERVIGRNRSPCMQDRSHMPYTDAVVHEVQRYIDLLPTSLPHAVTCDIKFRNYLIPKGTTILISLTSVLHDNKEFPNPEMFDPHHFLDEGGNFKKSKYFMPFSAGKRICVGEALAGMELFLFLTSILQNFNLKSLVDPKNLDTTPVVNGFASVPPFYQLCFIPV
Chain of Voltage-gated inwardly rectifying potassium channel KCNH2 (Q12809 whole entry): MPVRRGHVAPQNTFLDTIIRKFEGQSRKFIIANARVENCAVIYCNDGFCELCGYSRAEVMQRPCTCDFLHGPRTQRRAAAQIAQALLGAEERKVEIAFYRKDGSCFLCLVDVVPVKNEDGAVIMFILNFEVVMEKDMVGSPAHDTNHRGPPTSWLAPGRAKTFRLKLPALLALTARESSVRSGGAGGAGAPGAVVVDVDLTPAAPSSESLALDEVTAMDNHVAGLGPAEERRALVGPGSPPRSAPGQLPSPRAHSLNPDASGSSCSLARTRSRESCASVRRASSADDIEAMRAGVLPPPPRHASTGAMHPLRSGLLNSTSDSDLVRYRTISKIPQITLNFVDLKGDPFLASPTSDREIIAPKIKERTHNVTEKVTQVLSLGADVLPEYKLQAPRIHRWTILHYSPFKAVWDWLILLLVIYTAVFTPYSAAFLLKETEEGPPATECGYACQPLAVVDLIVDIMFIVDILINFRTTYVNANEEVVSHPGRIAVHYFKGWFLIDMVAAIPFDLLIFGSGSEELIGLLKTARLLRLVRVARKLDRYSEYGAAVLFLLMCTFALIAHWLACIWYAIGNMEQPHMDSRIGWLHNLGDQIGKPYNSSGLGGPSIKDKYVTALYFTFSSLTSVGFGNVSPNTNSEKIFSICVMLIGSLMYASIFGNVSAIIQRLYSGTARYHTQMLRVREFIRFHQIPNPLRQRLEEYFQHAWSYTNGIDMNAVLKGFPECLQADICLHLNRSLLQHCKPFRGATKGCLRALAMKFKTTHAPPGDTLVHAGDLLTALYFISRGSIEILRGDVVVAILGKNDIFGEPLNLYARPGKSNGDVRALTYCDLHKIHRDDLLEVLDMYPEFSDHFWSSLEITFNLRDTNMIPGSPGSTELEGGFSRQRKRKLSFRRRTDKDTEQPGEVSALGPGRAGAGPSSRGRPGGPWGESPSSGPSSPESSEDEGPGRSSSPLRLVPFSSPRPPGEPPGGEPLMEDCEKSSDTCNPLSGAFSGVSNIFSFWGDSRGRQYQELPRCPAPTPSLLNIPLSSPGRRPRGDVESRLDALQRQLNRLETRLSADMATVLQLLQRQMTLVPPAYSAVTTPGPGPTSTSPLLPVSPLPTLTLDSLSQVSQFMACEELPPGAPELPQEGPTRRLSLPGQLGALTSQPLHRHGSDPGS
Chain of Cytochrome P450 2D6 (P10635 whole entry): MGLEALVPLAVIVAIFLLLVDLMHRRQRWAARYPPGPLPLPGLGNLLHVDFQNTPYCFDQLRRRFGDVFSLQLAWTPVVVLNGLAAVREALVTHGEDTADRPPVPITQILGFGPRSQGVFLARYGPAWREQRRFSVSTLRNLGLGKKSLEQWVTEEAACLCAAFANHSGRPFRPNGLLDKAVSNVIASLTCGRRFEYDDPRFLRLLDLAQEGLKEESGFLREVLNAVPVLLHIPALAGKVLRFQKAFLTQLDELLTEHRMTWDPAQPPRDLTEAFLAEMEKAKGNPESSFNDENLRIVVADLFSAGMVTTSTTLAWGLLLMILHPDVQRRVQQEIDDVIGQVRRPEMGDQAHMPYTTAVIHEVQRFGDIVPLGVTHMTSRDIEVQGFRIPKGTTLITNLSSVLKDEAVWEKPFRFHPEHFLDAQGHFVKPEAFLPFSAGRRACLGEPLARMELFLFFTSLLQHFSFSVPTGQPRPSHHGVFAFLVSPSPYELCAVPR

Turning to `CCC[C@@H](CCO)Nc1nc(N)nc2c1CN(C(=O)c1csc(C)n1)CC2`, the MEC in data set [1] came to 3.4 µM. Moreover, the CC50 at 6 h in data set [2] is greater than 24 µM. The IC50 was 22 µM in data set [3]; greater than 10 µM against Cytochrome P450 2C9; greater than 10 µM at Cytochrome P450 2D6; greater than 10 µM at Cytochrome P450 1A2; greater than 10 µM on Cytochrome P450 2C19. For the same molecule, the metabolised at 0.25 h, 1 µM in [4] was found to be 33%; in [5], 21%. The Tmax in [6] was 0.5 h; in the data set on Mus musculus, 4 h. For the same molecule, the Cmax is 29 ng/mL in data set [7] and 711 ng/g in data set [8]. In data set [9], this molecule gave an AUClast of 1410 ng·h/g. Further, in data set [10], the fraction unbound is 0.7. Besides, the Activity (in data set [11]; in the data set listed under Homo sapiens) was greater than 10 µM each time.
